Three molecules from US8741840B2, “BMP-7 for use in treating neointimal hyperplasia” (Washington University, priority 2008, dated 2014) can be followed below.

Experiment [1] deals with LDLR−/− high fat fed mice. Briefly: Histology of proximal aorta (alizarin red): calcified atherosclerotic plaques. Format: in vivo, mouse. Particulars: for size of the atherosclerotic lesions: proximal aorta (FIG. 3); for plaque associated calcium deposition: proximal aorta, alizarin red stain (FIG. 3). An excerpt:
Tissue Preparation: Resected specimens were flash frozen in liquid nitrogen, then divided as follows: the heart, ascending aorta and aortic arch were separated from the descending aorta, and bisected sagittally through the aortic outflow tract. The descending aorta was bisected coronally, approximately halfway along its length. In order to visualize calcification in the tissue sections, Slices (5 μm thick) were cut and stained with von Kossa and Trap staining.
Additional mice were enrolled to the study for qualitative analysis of aortas to quantitate the effects of the treatments, because aortas of the experimental animals were destroyed by the technique of quantifying the aortic calcium content. Vascular calcification was largely aortic atherosclerotic plaque associated (FIG. 3), and punctate calcifications in the tunica media were observed. Panel A: Large lipid laden plaque (between arrows) in proximal aorta of a sham-operated high fat fed LDLR−/− mouse. Thick arrows identify focal calcifications in the base of the plaque. Panel B: A large calcified plaque (between arrows) in the proximal aorta of a CKD high fat fed LDLR−/− mouse. Panel C: A large lipid laden plaque (between arrows) in the proximal aorta of a BMP-7 treated CKD high fat fed LDLR−/− mouse. The stain is alizarin red. Magnification is 400× in A-C.

The nature of experiment [2]: Blood tests: serum biochemical parameters in the various groups of animals. The experiment is classed as in vivo, mouse. The following applies: serum; LDLR-/-, fat diet, CKD, 28 weeks post natal; BMP-7 10 μg/kg IP weekly or binder 3% in diet.
Experimental: Animals were sacrificed under anesthesia 28 weeks post natal. At the time of sacrifice, blood was taken by intracardiac stab, and the heart and aorta dissected en bloc. The BMP-7 treated group received intraperitoneal injection of BMP-7 10 μg/kg dry weight once weekly in 100 μl vehicle [mannitol (5% w/v), NaAcetate buffer (20 mM, pH 4.0-4.5), sterile water].
Animals were allocated to one of seven CKD high fat fed groups after the second surgery: Other control Groups included LDLR−/− sham operated mice on chow diet, and LDLR−/− mice with CKD on chow diet. C57B16 WT mice fed chow served as the normal benchmark source. […] Group 1 were LDLR−/− mice on the high fat diet sacrificed at 22 weeks. Group 2 were LDLR−/− mice with CKD fed the high fat diet and treated weekly from 22 to 28 weeks with vehicle IP. […] Group 3 was the first treatment group. These were LDLR−/− mice with CKD on high fat diet that received BMP-7 treatment (10 μg/kg IP weekly). Group 4 were LDLR−/− mice with CKD on high fat diet treated with sevelamer CO3 1%. Group 5 were LDLR−/− mice with CKD on high fat diet treated with sevelamer CO3 3%. […] Once the mice were randomized into groups, they were allowed to develop calcification from weeks 14 through weeks 22 post natal. Therapy was initiated at 23 weeks postnatal and continued until week 28 postnatal at which time the mice were examined.
Blood tests: Serum was analyzed on the day of blood draw for blood urea nitrogen [BUN], cholesterol, calcium and phosphate by standard laboratory methods. Before initiation of therapy, blood was obtained through saphenous vein. At the time of sacrifice, blood was obtained through intracardiac stab.
In experiment [3] the test system is human vascular smooth muscle cells (hVSMC) isolated from atherosclerotic donors. Briefly: Phosphorus stimulated matrix mineralization (matrix Ca content) in hVSMC cultures. The experiment is classed as cell-based. The following applies: Noggin 10-100 ng/ml added to high phosphorus media (FIG. 6A). Here is the method: (§1) Cell Culture: Human adult aorta were obtained from seven cadaveric organ donors rejected because of atherosclerosis by Mid-America Transplant Services (St. Louis, Mo.) and enzymatically digested to obtain Human Smooth Muscle Cells (HSMC). Medial tissue was separated from the adventia and intima and digested with collagenase type I (Worthington, Lakewood, N.J.) 2 mg/ml for 1 hr, and washed with Hank's balanced salt solution (HBSS). Further digestion followed with collagenase type II 1 mg/ml (Worthington, Lakewood, N.J.) and elastase 0.25 mg/ml (Worthington, Lakewood, N.J.) for 4 hrs. Cell suspensions were washed twice with HBSS and cultured in T-75 flasks for three weeks in a 95%/5% air/CO2 humidified environment at 37° C. The growth medium used was DMEM containing […] glucose (high glucose), 10% fetal bovine serum (FBS, Atlas, Fort Collins, Colo.), 1 mM sodium pyruvate, 100 units/ml Penicillin and […] Streptomycin (Sigma, St Louis, Mo.). Cell purity was assessed by positive immunostaining for α-smooth muscle actin and calponin and for the absence of von Willebrand factor. In all experimental protocols, cells were seeded at 1×10^5 cells/well in six-well plates. Medium was changed on the first day and every third day thereafter. In all cases, cells used were between passages two and five (Table 3).
Induction of Calcification: At the time of confluence, cells were switched to mineralization medium consisting of DMEM supplemented with 1 or 2 mM Pi. For cells exposed to BMP-7 treatment, fresh mineralization medium containing either vehicle (mannitol, acetic acid, acetate) or BMP-7 in vehicle was added at 0.1, 1.0, 10, or 100 ng/ml. The medium was changed every two or three days. […] Calcium content was quantified and normalized to cellular protein as described. (Jono 2000; Moe S. M. et al., Kidney Int 67:2295-2304, 2005)^11;52
In vitro matrix mineralization. […]

Experiment [4] concerns hVSMC. Briefly: RT-PCR of osteoblastic differentiation program genes in hVSMC. The experiment is classed as cell-based, human. The following applies: Noggin 100 ng/ml, high phosphorus media (FIG. 6B). The procedure: as §1
RT-PCR: RNA was extracted from cell cultures using RNeasy Mini Kits (Qiagen, Valencia, Calif.). Semi-quantitative RT-PCR was conducted using Roche 1st Strand cDNA Synthesis Kit (Indianapolis, Ind.) and PCR kit from Invitrogen (Grand Island, N.Y.) according to manufacturer's instructions using a two-step method. 1 μg of total RNA was reverse transcribed and random primers were added for 60 min at 42° C., prior to PCR. Forward and Reverse primers (Table 4) were added and the reactions subjected to PCR for 20-35 cycles. The number of cycles necessary to amplify cDNA but remain within the exponential amplification range was determined for each primer set. GAPDH was used as internal standard to assess loading. Genomic contamination was assessed by heat inactivation of the reverse transcriptase prior to RT-PCR. Primers were designed using Vector NTI soft ware (Invitrogen, Grand Island, N.Y.) and optimal conditions for each prime pairs were determined (Table 4). A Perkin-Elmer DNA Thermal Cycler was used to perform the reaction. Products were separated on a 2% agarose E-gel (Invitrogen, Grand Island, N.Y.), and visualized with ethidium bromide. The band intensity was analyzed first by scanning the gel on a Typhoon 9410 gel imager (Amersham Biosciences), quantified by using TotalLab software v2003.03 (Nonlinear Dynamics, Durham, N.C.) and normalized for loading by comparison to GAPGH. Negative controls were performed by inactivating the reverse transcriptase by boiling for 5 min prior to RT-PCR to insure that genomic DNA was not amplified.
Stimulation of osteoblastic differentiation through osterix induction. […] Osterix (E) was only weakly expressed in basal culture conditions. Phosphorus stimulated transcription of osterix (E). […] The data in A-E were normalized to the expression level in basal culture conditions and expressed as fold induction, mean±SEM, n=3. In: Principles of Bone Biology, edited by Bilezikian J P et al., New York, Academic Press, 1996, pp 51-67; Hoffmann H M et al., Proc. Nat. […]

Regarding `O=C([O-])[O-].[Ca+2]` [CaCO3], in experiment [1], the “size of the atherosclerotic lesions” value is on record as “did not decrease the size of the atherosclerotic lesions” and the “plaque associated calcium deposition” value is given as “diminished plaque associated calcium deposition”.

As for `O=C([O-])[O-].O=C([O-])[O-].O=C([O-])[O-].[La+3].[La+3]` [Lanthanum, LaCO3], in experiment [1], the “size of the atherosclerotic lesions” value was “did not decrease the size of the atherosclerotic lesions” and the “plaque associated calcium deposition” value is listed as “diminished plaque associated calcium deposition”. The Phosphorus in experiment [2] was 9.7 ± .4 mg/dL.

B1: Noggin: bone morphogenetic protein specific inhibitor (BMP-2 antagonist), from Pepro Tech. (protein, UniProt Q13253 28-232, looked up)
Noggin: QHYLHIRPAPSDNLPLVDLIEHPDPIFDPKEKDLNETLLRSLLGGHYDPGFMATSPPEDRPGGGGGAAGGAEDLAELDQLLRQRPSGAMPSEIKGLEFSEGLAQGKKQRLSKKLRRKLQMWLWSQTFCPVLYAWNDLGSRFWPRYVKVGSCFSKRSCSVPEGMVCKPSKSVHLTVLRWRCQRRGGQRCGWIPIQYPIISECKCSC
Turning to B1, the “matrix mineralization stimulated by phosphorus” value in experiment [3] is “inhibited matrix mineralization stimulated by phosphorus”. In addition, the “phosphorus induced osterix expression” value in experiment [4] is on record as “blocked phosphorus induced osterix expression”.
